How the values were obtained:
[1] = tested on: Desulfovibrio vulgaris (ATCC 29579); assay: Activity against sulfate reducing bacteria (3-tube most probable number method); format: cell-based; conditions: 10 ppm (copper or gluteraldehyde); one hour; start 2×10^7 mpn/ml; SRB2 media
[2] = room temperature; cited from earlier work

Compound | log10 reduction of D. vulgaris [1] | Water solubility [2] [mg/mL]
[Cl][Cu][Cl] [CuCl2, copper (II) chloride] | less than 3 log10 | 
[Cl-].[Cl-].[Zn+2] [ZnCl2, zinc chloride] |  | 4300
O=CCCCC=O [gluteraldehyde] | greater than 4.23 log10 | 
[Cu][Br] [CuBr, Copper(I) bromide] |  | 0.011

Reference: patent US11352551B2, “Proppant coatings containing antimicrobial agents” (Agienic, Inc., priority 2012, dated 2022)
